Results reported in patent US20130143891A1, “Methods for Treating Methotrexate-Resistant Disorders with 10-Propargyl-10-Deazaaminopterin” (ALLOS THERAPEUTICS, INC., priority 2010, published 2013).
Read-outs that look alike come from different tables or passages of the source.

Legend:
[1] = test system: PC3 prostate cancer cell line; assay: MTT cell cytotoxicity assay, PC3; format: cell-based, human; details: 72 h exposure, read-out: Cytotoxicity (IC50s)
Description: (§1) A panel of colon (HT29, HCT116, COLO205, HCC2998), breast (MCF7, MDA-MB-435), lung (HOP62, HOP92), ovarian (OVCAR3, IGROV1), prostate (DU145, PC3), and head and neck (SCC61, HEP2, SQ20B) human cancer cell lines was purchased from the ATCC (Rockville, Md.) and National Cancer Institute collections. […] All the data generated was the result of three separate experiments performed in duplicate. Cell viability was determined using the MTT assay, which was carried out as described previously (Hansen, 1989). Briefly, cells were seeded in 96-well plates at a density of 2×10^3 cells well^−1. […] The monolayer was suspended in 0.1 ml of DMSO and the absorbance at 560 nm was measured using a microplate reader. Positive and negative controls included wells with untreated cells or medium containing MTT with no cells, respectively. The conversion of yellow water-soluble tetrazolium MTT into purple insoluble formazan is catalyzed by mitochondrial dehydrogenases and is used to estimate the number of viable cells.

[2] = test system: SCC61 head and neck cancer cell line; assay: MTT cell cytotoxicity assay, SCC61; format: cell-based, human; details: 72 h exposure, read-out: Cytotoxicity (IC50s)
Description: as §1

[3] = test system: DU145 prostate cancer cell line; assay: MTT cell cytotoxicity assay, DU145; format: cell-based, human; details: naïve/parental, 72 h exposure, read-out: Cytotoxicity (IC50s)
Description: as §1

[4] = test system: HT29 colon cancer cell line; assay: MTT cell cytotoxicity assay, HT29; format: cell-based, human; details: 72 h exposure, read-out: Cytotoxicity (IC50s)
Description: as §1

HOP62 NSCLC cell line = assay: MTT cell cytotoxicity assay, HOP62; format: cell-based, human; details: 72 h exposure, read-out: Cytotoxicity (IC50s)
Description: as §1

[5] = test system: SQ20B head and neck cancer cell line; assay: MTT cell cytotoxicity assay, SQ20B; format: cell-based, human; details: 72 h exposure, read-out: Cytotoxicity (IC50s)
Description: as §1

HOP92 NSCLC cell line = assay: MTT cell cytotoxicity assay, HOP92; format: cell-based, human; details: 72 h exposure, read-out: Cytotoxicity (IC50s)
Description: as §1

[6] = test system: HEP2 head and neck cancer cell line; assay: MTT cell cytotoxicity assay, HEP2; format: cell-based, human; details: 72 h exposure, read-out: Cytotoxicity (IC50s)
Description: as §1

[7] = test system: IGROV1 ovarian cancer cell line; assay: MTT cell cytotoxicity assay, IGROV1; format: cell-based, human; details: 72 h exposure, read-out: Cytotoxicity (IC50s)
Description: as §1

[8] = test system: COLO205 colon cancer cell line; assay: MTT cell cytotoxicity assay, COLO205; format: cell-based, human; details: 72 h exposure, read-out: Cytotoxicity (IC50s)
Description: as §1

[9] = test system: HCC2998 colon cancer cell line; assay: MTT cell cytotoxicity assay, HCC2998; format: cell-based, human; details: 72 h exposure, read-out: Cytotoxicity (IC50s)
Description: as §1

[10] = test system: MCF7 breast cancer cell line; assay: MTT cell cytotoxicity assay, MCF7; format: cell-based, human; details: 72 h exposure, read-out: Cytotoxicity (IC50s)
Description: as §1

[11] = test system: HCT116 colon cancer cell line; assay: MTT cell cytotoxicity assay, HCT116; format: cell-based, human; details: 72 h exposure, read-out: Cytotoxicity (IC50s)
Description: as §1

[12] = test system: OVCAR3 ovarian cancer cell line; assay: MTT cell cytotoxicity assay, OVCAR3; format: cell-based, human; details: 72 h exposure, read-out: Cytotoxicity (IC50s)
Description: as §1

[13] = test system: MDA-MB-435 melanoma cell line; assay: MTT cell cytotoxicity assay, MDA-MB-435; format: cell-based, human; details: MDA-MB-435 (melanoma; MDA435 in table), 72 h exposure, read-out: Cytotoxicity (IC50s)
Description: as §1

DU-PDX cells = assay: Cytotoxicity in 10-propargyl-10-deazaminopterin-adapted DU145 cells; format: cell-based, human
Description: (§2) All the data generated was the result of three separate experiments performed in duplicate. Cell viability was determined using the MTT assay, which was carried out as described previously (Hansen, 1989). Briefly, cells were seeded in 96-well plates at a density of 2×10^3 cells well^−1. Cells were incubated for 120 hours and then 0.4 mg ml^−1 of MTT dye (3-[4,5-dimethylthiazol-2-yl]-2,5-diphenyltetrazolium bromide was added for 4 hours at 37° C. The monolayer was suspended in 0.1 ml of DMSO and the absorbance at 560 nm was measured using a microplate reader. Positive and negative controls included wells with untreated cells or medium containing MTT with no cells, respectively. The conversion of yellow water-soluble tetrazolium MTT into purple insoluble formazan is catalyzed by mitochondrial dehydrogenases and is used to estimate the number of viable cells. The control value corresponding to untreated cells was taken as 100% and the viability of treated samples was expressed as a percentage of the control. IC50 values were determined as concentrations that reduced cell viability by 50%.
(§3) For single agent studies, cells were seeded and allowed to settle for 24 hours prior to treatment with increasing concentrations of 10-propargyl-10-deazaminopterin for 72 h. After incubation, the cells were allowed to recover in compound-free medium for 48 h, prior to determination of growth inhibition using the MTT assay.
(§4) To characterize the predictive factors of 10-propargyl-10-deazaminopterin antiproliferative effects, the cell lines DU-PDX and HEP-PDX were developed from parental DU145 and HEP2 cells, respectively, by exposure to stepwise increasing concentrations of 10-propargyl-10-deazaminopterin over a period of 6 months.

HEP-PDX cells = assay: Cytotoxicity in 10-propargyl-10-deazaminopterin-adapted HEP2 cells; format: cell-based, human
Description: as §2, §3, §4

DU-MTX cells = assay: Cytotoxicity in methotrexate-adapted DU145 cells; format: cell-based, human
Description: as §2, §3
To compare the mechanisms of 10-propargyl-10-deazaminopterin and methotrexate resistance, the cell lines DU-MTX and HEP-MTX were developed from parental DU145 and HEP2 cells by exposure to stepwise increasing concentrations of methotrexate.

[14] = test system: 15 human solid tumor cell lines; assay: Cytotoxicity across panel of 15 human solid tumor cell lines; format: cell-based
Description: A panel of colon (HT29, HCT116, COLO205, HCC2998), breast (MCF7, MDA-MB-435), lung (HOP62, HOP92), ovarian (OVCAR3, IGROV1), prostate (DU145, PC3), and head and neck (SCC61, HEP2, SQ20B) human cancer cell lines was purchased from the ATCC (Rockville, Md.) and National Cancer Institute collections. Cells were grown as monolayers in RPMI medium supplemented with 10% fetal calf serum, 2 mM glutamine, 100 units ml^−1 penicillin and […] streptomycin.
as §2, §3

DHFR = assay: Western blot of DHFR protein expression; format: cell-based, human
Description: Cells were lysed in buffer containing 50 mM HEPES (pH 7.6), 150 mM NaCl, 1% Triton X-100, 2 mM sodium vanadate, 100 mM NaF, and 0.4 mg·ml^−1 phenylmethylsulfonyl fluoride. Equal amounts of protein (20-50 μg/lane) were subjected to SDS-PAGE and transferred to nitrocellulose membranes. Membranes were probed with anti-cleaved PARP, anti-cleaved caspase 3, anti-caspase 9 (Cell Signaling, Saint Quentin Yvelines, France), anti-DHFR (Abcam, France), anti-β-actin (Sigma Aldrich, Saint-Quentin Fallavier, France) specific primary antibodies followed by peroxidase-linked secondary antibodies and visualization by chemiluminescence.

Row | Structure (SMILES) | IC50 ([1]; Homo sapiens, 72 h) [µM] | IC50 ([2]; Homo sapiens, 72 h) [µM] | IC50 ([3]; Homo sapiens, DU-145, 72 h) [µM] | IC50 ([4]; Homo sapiens, HT-29, 72 h) [µM] | IC50 (HOP62 NSCLC cell line; Homo sapiens, HOP-62, 72 h) [µM] | IC50 ([5]; Homo sapiens, SQ20B, 72 h) [µM] | IC50 (HOP92 NSCLC cell line; Homo sapiens, HOP-92, 72 h) [µM] | IC50 ([6]; Homo sapiens, HEp-2, 72 h) [µM] | IC50 ([7]; Homo sapiens, IGROV-1, 72 h) [µM] | IC50 ([8]; Homo sapiens, COLO 205, 72 h) [µM] | IC50 ([9]; Homo sapiens, HCC 2998, 72 h) [µM] | IC50 ([10]; Homo sapiens, MCF7, 72 h) [µM] | IC50 ([11]; Homo sapiens, HCT-116, 72 h) [µM] | IC50 ([12]; Homo sapiens, OVCAR-3, 72 h) [µM] | IC50 ([13]; Homo sapiens, MDA-MB-435, 72 h) [µM] | IC50 [6] [µM] | IC50 [7] [µM] | IC50 [8] [µM] | other results
1 | O=c1[nH]cc(F)c(=O)[nH]1 [5-FU, 5-fluorouracil] | 1.5 | 1.2 | 7 | 3 | 78 | 10 | 18 | 86 | 8 | 0.8 | 10 | 1.3 | 10 | 31 | 5 | – | – | – | cross-resistance: cytotoxicity in DU-PDX compared with parental DU145 (DU-PDX cells; DU-PDX cells, 72 h exposure for pemetrexed and 5-FU): No significant difference; cross-resistance: cytotoxicity in HEP-PDX compared with parental HEP2 (HEP-PDX cells; HEP-PDX cells, 72 h exposure for pemetrexed and 5-FU): No significant difference
2 | C[C@H]1O[C@@H](n2cc(F)c(=O)[nH]c2=O)[C@H](O)[C@@H]1O [5′-DFUR] | – | – | – | – | – | – | – | – | – | – | – | – | – | – | – | 250 | 29 | 3.9 | IC50 [1]: 25 µM; IC50 [2]: 3.2 µM; IC50 [3]: 28 µM; IC50 [4]: 16 µM; IC50 (HOP62 NSCLC cell line): 380 µM; IC50 [5]: 27 µM; IC50 (HOP92 NSCLC cell line): 135 µM; IC50 [9]: 34 µM; IC50 [10]: 7.8 µM; IC50 [11]: 45 µM; IC50 [12]: 230 µM; IC50 [13]: 33 µM
3 | C#CCC(Cc1cnc2nc(N)nc(N)c2n1)c1ccc(C(=O)N[C@@H](CCC(=O)O)C(=O)O)cc1 (mixture of isomers) [Pralatrexate, (2S)-2-[[4-[(1RS)-1-[(2,4-diaminopteridin-6-yl)methyl]but-3-ynyl]benzoyl]amino]pentanedioic acid] | – | – | – | – | – | – | – | < 0.1 | < 0.1 | ≥ 9 | – | – | – | – | – | 0.05 | 0.08 | 9 | IC50 ([3]; listed as 10-propargyl-10-deazaminopterin): 0.01 µM; IC50 lower than that of methotrexate (DU-MTX cells; DU-MTX cells): approximately 10 fold; IC50 (DU-MTX cells; Homo sapiens, DU-145, DU-MTX cells (FIG. 3), read-out: IC50 for the methotrexate adapted DU-145 cell lines): 0.02 µM; less sensitive (resistant) than parental cells (DU-PDX cells; DU-PDX versus parental DU145): more than 200 fold; change in cytotoxicity with and without verapamil and cyclosporine A (DU-PDX cells; DU-PDX, 30 μM verapamil and 3 μM cyclosporin A concomitantly for 72 hours): No changes were observed; less sensitive (resistant) than parental cells (HEP-PDX cells; HEP-PDX versus parental HEP2): more than 200 fold; change in cytotoxicity with and without verapamil and cyclosporine A (HEP-PDX cells; HEP-PDX, 30 μM verapamil and 3 μM cyclosporin A concomitantly for 72 hours): No changes were observed; IC50 ([14]; 6 of the 15 human cancer cell lines, read-out: IC50 in the 6 relatively resistant of 15 cell lines): > 9 µM; IC50s on average lower than those observed for methotrexate ([14]; average over the panel): ~10 fold; IC50 ([14]; nine of the 15 human cancer cell lines, read-out: IC50 in the nine sensitive of 15 cell lines): < 0.1 µM; DHFR protein expression after prolonged exposure (DHFR; 6 months exposure, HEP-PDX cells): not after prolonged (6 months) exposure; DHFR protein expression after short exposure (DHFR; 24 hour exposure (FIG. 6)): slightly increased
4 | Nc1nc2[nH]cc(CCc3ccc(C(=O)N[C@@H](CCC(=O)O)C(=O)O)cc3)c2c(=O)[nH]1 [Pemetrexed, pemetrexed] | 2.7 | 0.015 | 0.048 | 0.023 | 0.029 | 0.025 | 0.02 | 0.1 | 300 | 0.024 | 1.5 | 0.022 | 350 | 0.025 | 300 | – | – | – | cross-resistance: cytotoxicity in DU-PDX compared with parental DU145 (DU-PDX cells): only slightly less cytotoxic; cross-resistance: cytotoxicity in HEP-PDX compared with parental HEP2 (HEP-PDX cells): only slightly less cytotoxic
